Assays:
rotavirus = conditions: pediatric patients; 3 day course; 7.5 mg/kg suspension; cited from earlier work
[1] = test system: rotavirus infection in MA-104 cells; conditions: cited from earlier work
AGS cells [2] = test: Proliferation assay (ALAMARBLUE) of egg and/or colostrum, Example 8A; format: cell-based, human
Description: Cell proliferation assays were performed as previously described, utilising ALAMARBLUETM (Invitrogen, Paisley, UK), (Marchbank et al., Am J Physiol Gastrointest Liver Physiol. 2009; 296:[…]-703) as per manufacturer's instructions. Briefly, cells were seeded at 2000 cells/well, grown in medium and 10% FCS in 96 well plates overnight. The following day, cells were washed with medium alone and incubated in medium alone (negative control), medium containing epidermal growth factor (EGF, 1 μg/ml, positive control) or egg and colostrum combination. BSA was added to additional wells as a further negative control. Data are expressed as % positive control where the rise in proliferation (increase in A570 above baseline) caused by […] of EGF was defined as 100%. Whole powdered egg and colostrum (0.25-4 mg/ml) was added to cells and effect on proliferation and cell migration analysed. Additional studies compared “pure” yolk and egg white powder (1 mg powder/ml) along with separated yolk and white from fresh eggs (added at same protein concentration as equivalent powder) and also compared uncooked egg powder and whole fresh egg that had been heated to 100° C. for 8 minutes (samples placed in 50 ml falcon tube in waterbath, followed by homogenisation) prior to addition to cells. […] This 40:60 proportion was used to reproduce the product currently commercially available and used in trials of infectious diarrhoea. Gaensbauer et al. BMJ Glob Health. 2017; 2:e000452. The importance of the EGFR and TGFβ in mediating proliferative and migratory effects was examined by adding whole egg powder (1 mg/ml, w/v) to cells in the presence and absence of tyrphostin (100 nM) and a TGFβ ([…]) neutralising antibody (antibodies-online.com, Aachen, Germany). Additional samples examined the effect of pure ovomucoid (25-100 μg/ml) and ovalbumin (50-400 μg/ml) on proliferation and migration. To further examine the contribution of ovomucoid and ovalbumin in mediating the proliferative and migratory activity seen using whole egg powder, further wells had egg powder added (1 mg/ml) in the presence of anti-ovomucoid and ovalbumin antibodies (Generon, Slough, Berkshire, UK) at 1 μg/ml.

AGS cells [3] = test: Cell migration assay (wounded monolayers) of egg and/or colostrum, Example 8A; format: cell-based, human; conditions: purified protein
Description: Cell migration assays were performed using our previously published methods. Marchbank et al., Am J Physiol Gastrointest Liver Physiol. 2009; 296:[…]-703. Briefly, confluent monolayers had standard wounds inflicted and serial photomicrographs taken. Twenty measurements per field were performed by placing a transparent grid over the photograph and measuring the distance moved from the original wound line. All results are expressed as mean (SEM) of four separate experiments. Whole powdered egg and colostrum (0.25-4 mg/ml) was added to cells and effect on proliferation and cell migration analysed. Additional studies compared “pure” yolk and egg white powder (1 mg powder/ml) along with separated yolk and white from fresh eggs (added at same protein concentration as equivalent powder) and also compared uncooked egg powder and whole fresh egg that had been heated to 100° C. for 8 minutes (samples placed in 50 ml falcon tube in waterbath, followed by homogenisation) prior to addition to cells. […] This 40:60 proportion was used to reproduce the product currently commercially available and used in trials of infectious diarrhoea. Gaensbauer et al. BMJ Glob Health. 2017; 2:e000452. […]

these cell lines = conditions: cited from earlier work
RIE cells = test: Cell proliferation assay in RIE cells; format: cell-based, rat; conditions: vs SFM, standard colostrum or ZnC
Description: Human gastrointestinal cells (AGS cells) or rat intestinal epithelial cells (RIE cells) are seeded at 2000 cells/well in an appropriate growth medium containing glutamine and 10% foetal calf serum in 96 well plates overnight. The following day, cells are washed twice with serum-free medium and then incubated in serum-free medium alone (SFM negative control) or also containing colostrum at various concentrations or epidermal growth factor (EGF, positive control) overnight. The following day ALAMARBLUE™ is added to each well. ALAMARBLUE™ is a coloured substrate that changes colour from blue to pink in response to cellular metabolic reduction. This change can be determined by reading the absorbance of the wells at 570 nm using a spectrophotometer at 0 h when the substrate is added and 4 hours later.

CC(=O)Oc1ccccc1C(=O)Nc1ncc([N+](=O)[O-])s1 [Nitazoxanide]
duration of rotavirus disease (rotavirus): effective to reduce the duration of rotavirus disease

O=c1cc(-c2ccc(O)cc2)oc2cc(O[C@@H]3O[C@H](CO)[C@@H](O)[C@H](O)[C@H]3O)cc(O)c12 [apigenin 7-O-glucoside]
antiviral activity against rotavirus infection [1]: antiviral activity

O=c1cc(-c2ccc(O)c(O)c2)oc2cc(O)cc(O)c12 [luteolin]
antiviral activity against rotavirus infection [1]: antiviral activity

ovalbumin: purified ovalbumin, 42 kDa egg white protein
effect on proliferation and migration (AGS cells [2]; pure isolated ovalbumin at 400 µg/mL): major stimulatory effect | cell proliferation dose-response, in words (AGS cells [2]; purified protein, 50-400 μg/ml): increasing activity up to the highest dose | cell migration dose-response, in words (AGS cells [3]; 50-400 μg/ml): increasing activity up to the highest dose

soya bean trypsin inhibitor
proliferation or migration (these cell lines): does not increase proliferation or migration

zinc carnosine
cell proliferation (A570 nm), comparison in words (RIE cells): stimulate cell proliferation

B1: ovomucoid: purified ovomucoid, 28 kDa egg white protein with trypsin inhibitor activity (protein, UniProt P01005 25-210, looked up)
Ovomucoid: AEVDCSRFPNATDKEGKDVLVCNKDLRPICGTDGVTYTNDCLLCAYSIEFGTNISKEHDGECKETVPMNCSSYANTTSEDGKVMVLCNRAFNPVCGTDGVTYDNECLLCAHKVEQGASVDKRHDGGCRKELAAVSVDCSEYPKPDCTAEDRPLCGSDNKTYGNKCNFCNAVVESNGTLTLSHFGKC
share of total proliferative and migratory activity of whole egg (AGS cells [2]; from neutralising antibody studies): about 80% | concentration of peak effect, cell proliferation (AGS cells [2]; purified protein, dose-response 25-100 μg/ml): 50 µg/mL | concentration of peak effect, cell migration (AGS cells [3]; dose-response 25-100 μg/ml): 50 µg/mL
